{"source": "ChEMBL document CHEMBL1146877", "about": "“D609 blocks cell survival and induces apoptosis in neural stem cells” (Bioorg Med Chem Lett, 2006)", "assay_type_in_all_cases": "functional, cell-based", "conditions_in_all_cases": "Rattus norvegicus", "key": {"[1]": {"system": "NSC", "test": "Induction of necrosis in NSC cells assessed as lactate dehydrogenase release at 56.29 uM within 72 hrs relative to control"}, "[2]": {"system": "NSC", "test": "Decrease in viability of NSC cells at 37.53 uM for 48 hrs in presence of bFGF"}, "[3]": {"system": "NSC", "test": "Decrease in viability of NSC cells at 56.29 uM for 72 hrs in presence of bFGF"}, "[4]": {"system": "NSC", "test": "Inhibition of reactive oxygen species accumulation in NSC cells relative to control"}, "[5]": {"system": "NSC", "test": "Induction of apoptosis in NSC cells by TUNEL assay"}, "[6]": {"system": "NSC", "test": "Decrease in viability of NSC cells at 18.76 uM for 24 hrs in presence of bFGF"}}, "note": "Active and inactive are the calls of the source. The calls are words filed in the database; no cut-off is given here."}
{"smiles": "S=C(S)OC1CC2CC1C1CCCC21", "note": "(stereo unspecified)", "values": [{"measurement": "Activity", "setting": "[1]", "result": "inactive"}, {"measurement": "Activity", "setting": "[2]", "result": "Active"}, {"measurement": "Activity", "setting": "[3]", "result": "Active"}, {"measurement": "Activity", "setting": "[4]", "result": "Active"}, {"measurement": "Activity", "setting": "[5]", "result": "Active"}, {"measurement": "Activity", "setting": "[6]", "result": "Active"}]}
